Consider 4 compounds from patent US6861544B1, “Fluorous tin compounds an methods of using fluorous tin compounds” (University of Pittsburgh, priority 2000, dated 2005).

A short description of data set [1]: Partition coefficient of fluorous tin hydrides, FC-72/CH3CN (GC). The format is physicochemical. The conditions noted are these: FC-72 (1 mL) / acetonitrile (1 mL), stirred 10 min, GC relative peak area, n-octadecane internal standard. The method, then: (§1) Measurement of the Partition Coefficient of Fluorous Tin hyrides 4a-c. Fluorous tin hydrides (2-12 mg) were stirred with FC-72 (1 mL) and benzene (1 mL) or acetonitrile (1 mL) for 10 min. After separation, n-octadecane was added to both phases as an internal standard (for FC-72 phase, the solvent was evaporated and ethyl acetate (1 mL) was added to dissolve both the tin hydride and n-ocadecane). An aliquot (10 uL) of each phase was injected to GC for three times and the relative peak area was used to calculate the following partition coefficients of tin hydrides: FC-72/CH3CN, 4a, 2.4; 4b, 14; 4c, 48; FC-72/benzene, 4a, 0.7; 4b, 2.5; 4c, 4.7.

Data set [2] is described as follows: Partition coefficient of fluorous tin hydrides, FC-72/benzene (GC). The format is physicochemical. Particulars: FC-72 (1 mL) / benzene (1 mL), stirred 10 min, GC relative peak area, n-octadecane internal standard. The procedure: as §1
For data set [3] the following is noted: conditions of the reduction of FIG. 4.

Molecules are shown by their SMILES.

For `[CH3][SnH]([CH3])[CH2]CC(F)(F)C(F)(F)C(F)(F)C(F)(F)C(F)(F)C(F)(F)F` [4a, Dimethyl-(3,3,4,4,5,5,6,6,7,7,8,8,8-tridecafluorooctyl)stannane], the “partition coefficient FC-72/CH3CN” value in data set [1] came to 2.4. The “partition coefficient FC-72/benzene” value in data set [2] stood at 0.7.
For `[CH3][SnH]([CH3])[CH2]CC(F)(F)C(F)(F)C(F)(F)C(F)(F)C(F)(F)C(F)(F)C(F)(F)C(F)(F)F` [4b, Dimethyl-(3,3,4,4,5,5,6,6,7,7,8,8,9,9,10,10,10-heptadecafluorodecyl)stannane] the same measures were 14 and 2.5.
As to `[CH3][SnH]([CH3])[CH2]CC(F)(F)C(F)(F)C(F)(F)C(F)(F)C(F)(F)C(F)(F)C(F)(F)C(F)(F)C(F)(F)C(F)(F)F` [4c, Dimethyl-(3,3,4,4,5,5,6,6,7,7,8,8,9,9,10,10,11,11,12,12,12-heneicosafluorododecyl)stannane], the “partition coefficient FC-72/CH3CN” value in data set [1] came to 48. In addition, the “partition coefficient FC-72/benzene” value in data set [2] was determined as 4.7.
Consider `FC(F)(F)C(F)(F)C(F)(F)C(F)(F)C(F)(F)C(F)(F)C[CH2][SnH]([CH2]CC(F)(F)C(F)(F)C(F)(F)C(F)(F)C(F)(F)C(F)(F)F)[CH2]CC(F)(F)C(F)(F)C(F)(F)C(F)(F)C(F)(F)C(F)(F)F` [(C6F13CH2CH2)3SnH], for which the solubility in t-butanol entry in data set [3] is listed as “insoluble or nearly insoluble”.
